Assay results from patent publication US20220257577A1, “EZH2 INHIBITION IN COMBINATION THERAPIES FOR THE TREATMENT OF CANCERS” (Constellation Pharmaceuticals, Inc., priority 2019, published 2022).
Read-outs that look alike come from different tables or passages of the source.

What was measured:
[1] = target: wild-type EZH2-containing PRC2 complex (Homo sapiens, UniProt Q15910); conditions: see PCT/US2019/027932, read-out: half-maximal inhibitory concentration (IC50), catalytic activity; cited from earlier work
Chain of wild-type EZH2-containing PRC2 complex (Q15910 whole entry): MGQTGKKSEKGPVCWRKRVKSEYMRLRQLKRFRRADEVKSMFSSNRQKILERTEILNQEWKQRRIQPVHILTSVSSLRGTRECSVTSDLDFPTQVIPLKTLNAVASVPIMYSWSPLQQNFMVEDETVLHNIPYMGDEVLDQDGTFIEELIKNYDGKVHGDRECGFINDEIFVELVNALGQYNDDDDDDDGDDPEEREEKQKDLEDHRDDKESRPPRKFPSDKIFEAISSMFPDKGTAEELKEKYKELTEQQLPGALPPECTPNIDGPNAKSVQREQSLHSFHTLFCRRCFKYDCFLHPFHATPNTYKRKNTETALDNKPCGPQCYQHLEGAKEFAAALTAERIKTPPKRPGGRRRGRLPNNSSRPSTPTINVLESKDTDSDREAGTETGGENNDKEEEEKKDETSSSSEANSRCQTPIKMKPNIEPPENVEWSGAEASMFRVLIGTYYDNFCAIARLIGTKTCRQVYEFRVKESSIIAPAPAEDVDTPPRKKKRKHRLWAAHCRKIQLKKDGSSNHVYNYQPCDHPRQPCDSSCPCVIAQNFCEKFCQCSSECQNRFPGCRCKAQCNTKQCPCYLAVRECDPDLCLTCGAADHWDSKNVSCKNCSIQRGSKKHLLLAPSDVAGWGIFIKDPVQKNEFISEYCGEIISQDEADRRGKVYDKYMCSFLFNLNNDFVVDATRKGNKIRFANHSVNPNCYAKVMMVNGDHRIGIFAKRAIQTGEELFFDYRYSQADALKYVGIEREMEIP
Chain of wild-type EZH2-containing PRC2 complex (O75530 whole entry partner): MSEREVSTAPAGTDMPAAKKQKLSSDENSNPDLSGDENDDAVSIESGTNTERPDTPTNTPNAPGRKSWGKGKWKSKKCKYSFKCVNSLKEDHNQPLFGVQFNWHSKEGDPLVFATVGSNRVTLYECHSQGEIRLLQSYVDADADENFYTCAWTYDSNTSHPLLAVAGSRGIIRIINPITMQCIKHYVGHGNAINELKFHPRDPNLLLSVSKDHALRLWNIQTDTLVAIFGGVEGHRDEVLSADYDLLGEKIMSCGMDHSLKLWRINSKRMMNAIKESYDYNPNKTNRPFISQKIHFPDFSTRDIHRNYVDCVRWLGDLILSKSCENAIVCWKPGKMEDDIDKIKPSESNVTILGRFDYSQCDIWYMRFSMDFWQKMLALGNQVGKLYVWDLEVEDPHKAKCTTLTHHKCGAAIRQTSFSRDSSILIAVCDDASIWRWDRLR
Chain of wild-type EZH2-containing PRC2 complex (Q15022 whole entry partner): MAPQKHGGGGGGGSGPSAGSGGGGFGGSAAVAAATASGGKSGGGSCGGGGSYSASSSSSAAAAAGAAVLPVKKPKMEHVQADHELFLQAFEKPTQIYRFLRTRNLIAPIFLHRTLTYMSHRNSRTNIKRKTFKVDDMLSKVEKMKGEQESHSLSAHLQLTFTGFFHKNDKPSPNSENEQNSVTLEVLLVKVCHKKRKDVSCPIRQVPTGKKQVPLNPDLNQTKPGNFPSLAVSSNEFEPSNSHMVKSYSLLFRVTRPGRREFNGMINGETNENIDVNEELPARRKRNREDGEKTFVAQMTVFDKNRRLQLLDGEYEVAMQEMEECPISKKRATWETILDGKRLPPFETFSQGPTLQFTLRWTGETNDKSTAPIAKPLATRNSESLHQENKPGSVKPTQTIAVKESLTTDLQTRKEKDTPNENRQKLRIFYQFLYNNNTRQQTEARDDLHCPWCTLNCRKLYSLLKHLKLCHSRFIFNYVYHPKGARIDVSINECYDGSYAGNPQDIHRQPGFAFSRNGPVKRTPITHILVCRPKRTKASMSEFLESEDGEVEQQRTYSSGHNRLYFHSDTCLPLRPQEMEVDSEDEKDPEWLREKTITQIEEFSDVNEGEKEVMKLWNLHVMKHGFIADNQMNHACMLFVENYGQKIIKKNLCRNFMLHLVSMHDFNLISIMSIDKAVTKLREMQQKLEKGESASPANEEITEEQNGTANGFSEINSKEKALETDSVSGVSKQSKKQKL
Chain of wild-type EZH2-containing PRC2 complex (Q09028 whole entry partner): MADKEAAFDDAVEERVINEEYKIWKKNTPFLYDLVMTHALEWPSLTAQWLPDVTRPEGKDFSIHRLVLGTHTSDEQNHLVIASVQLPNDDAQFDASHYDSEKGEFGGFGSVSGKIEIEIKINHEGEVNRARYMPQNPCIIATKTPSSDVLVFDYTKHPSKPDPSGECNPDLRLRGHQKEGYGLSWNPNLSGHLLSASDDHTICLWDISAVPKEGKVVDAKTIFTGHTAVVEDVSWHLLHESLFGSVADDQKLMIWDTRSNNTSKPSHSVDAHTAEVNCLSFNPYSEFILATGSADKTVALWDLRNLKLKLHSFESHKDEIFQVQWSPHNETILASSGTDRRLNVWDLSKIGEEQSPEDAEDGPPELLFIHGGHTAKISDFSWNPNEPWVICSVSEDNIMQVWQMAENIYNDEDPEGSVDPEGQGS

[2] = tested on: HT1376 (bladder cancer) cell lines, HT1376-DMF and HT1376-CR; experiment: Antiproliferative activity in HT1376 bladder cancer cell lines; assay type: cell-based; conditions: cisplatin resistant HT1376-CR versus age-matched DMF control HT1376-DMF; FIG. 1A/1B
Description: (§1) Data shown are mean cell viability±standard error of the mean (SEM), n=2-3 and are representative of duplicate independent experiments.
(§2) Representative of duplicate independent experiments; mean±SD shown.
(§3) The sensitivity of multiple solid tumor cancer cell lines to the antiproliferative activity of Compound 1 with and without cisplatin was evaluated. […] Combination treatment with Compound 1 and cisplatin, however, led to greater than 50% reduction in growth.

[3] = target: EZH1-containing PRC2 complex (Homo sapiens, UniProt Q92800); conditions: see PCT/US2019/027932, read-out: half-maximal inhibitory concentration (IC50), catalytic activity; cited from earlier work
Chain of EZH1-containing PRC2 complex (Q92800 whole entry): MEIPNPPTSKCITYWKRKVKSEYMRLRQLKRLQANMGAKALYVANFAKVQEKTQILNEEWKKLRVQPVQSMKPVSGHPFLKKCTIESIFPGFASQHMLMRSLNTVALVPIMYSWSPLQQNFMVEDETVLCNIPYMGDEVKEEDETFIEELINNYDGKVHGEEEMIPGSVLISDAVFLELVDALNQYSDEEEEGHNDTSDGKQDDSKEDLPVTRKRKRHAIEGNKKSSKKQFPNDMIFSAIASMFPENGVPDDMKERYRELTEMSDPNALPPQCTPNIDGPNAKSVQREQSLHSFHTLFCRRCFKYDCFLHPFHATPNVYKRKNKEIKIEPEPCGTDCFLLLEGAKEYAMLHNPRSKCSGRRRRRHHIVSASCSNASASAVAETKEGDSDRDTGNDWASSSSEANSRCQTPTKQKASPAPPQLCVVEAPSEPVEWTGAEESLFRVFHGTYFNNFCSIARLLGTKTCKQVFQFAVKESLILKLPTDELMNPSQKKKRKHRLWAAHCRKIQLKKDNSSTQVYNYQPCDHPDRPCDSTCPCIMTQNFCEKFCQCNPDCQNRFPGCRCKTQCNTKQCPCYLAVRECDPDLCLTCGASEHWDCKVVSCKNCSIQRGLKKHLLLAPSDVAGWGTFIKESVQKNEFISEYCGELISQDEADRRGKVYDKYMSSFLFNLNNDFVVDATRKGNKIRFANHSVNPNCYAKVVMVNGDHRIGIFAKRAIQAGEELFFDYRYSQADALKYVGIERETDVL
Chain of EZH1-containing PRC2 complex (O75530 whole entry partner): as the sequence (O75530 whole entry partner) above
Chain of EZH1-containing PRC2 complex (Q15022 whole entry partner): as the sequence (Q15022 whole entry partner) above
Chain of EZH1-containing PRC2 complex (Q09028 whole entry partner): as the sequence (Q09028 whole entry partner) above

[4] = target: T1, EZH2 (PRC2) (Homo sapiens, UniProt Q15910); conditions: binding to PRC2 complex, see PCT/US2019/027932, cited from earlier work
T1 sequence (Q15910 whole entry): as the sequence (Q15910 whole entry) above
T1 sequence (O75530 whole entry partner): as the sequence (O75530 whole entry partner) above
T1 sequence (Q15022 whole entry partner): as the sequence (Q15022 whole entry partner) above
T1 sequence (Q09028 whole entry partner): as the sequence (Q09028 whole entry partner) above

[5] = tested on: gene expression in bladder cancer cell lines; experiment: RNA-sequencing of bladder cancer cell lines; assay type: cell-based; conditions: treatment for 4 days
Source text: Reduction in H3K27me3 levels result in changes in gene expression. RNA-sequencing of bladder cancer cell lines after treatment with Compound 1 for 4 days results in significant changes in the expression levels of multiple genes. […] The increase in gene expression is both dose and time dependent, with increasing expression observed at higher concentrations of Compound 1 and at later timepoints. This contrasts with reductions of H3K27me3 as methyl mark changes were observed after 1 day of Compound 1 treatment. […] See Yang X, Karuturi R K, Sun F, et al. CDKN1C (p57) is a direct target of EZH2 and suppressed by multiple epigenetic mechanisms in breast cancer cells. PLoS One. 2009; 4(4):e5011. Low expression of CDKN1C is seen in advanced bladder and breast cancers and is correlated with poor prognosis. See Yang above and Hoffmann M J, Florl A R, Seifert H H, et al. Multiple mechanisms downregulate CDKN1C in human bladder cancer. Int J Cancer. 2005 Apr. 10; 114(3):406-13.

[6] = tested on: HT1376 tumors; experiment: Antitumor effect in HT1376 tumors; assay type: in vivo; conditions: HT1376 tumors in CB17 SCID mice; FIG. 4
Source text: FIG. 4 illustrates the antitumor effect of Compound 1, cisplatin, and the combination of both in HT1376 tumors in CB17 SCID mice. Data shown are mean tumor size±SEM, n=6. PO=oral administration, IV=intravenous administration, QD=once per day, QW=once per week.

[7] = tested on: H3K27me3 in HeLa (wild-type EZH2-containing cervical cancer cell line); conditions: after 4 days of treatment, see PCT/US2019/027932, read-out: EC50, reduction of global H3K27me3 levels; cited from earlier work
[8] = tested on: H3K27me3 in HT1197 bladder cancer cell line; experiment: Global H3K27me3 intracellular levels, HT1197; assay type: cell-based; conditions: Homo sapiens, 72 h; HT1197, Day 3; read-out: EC50, reduction of global H3K27me3 levels
[9] = tested on: H3K27me3 in ovarian cancer TOV21G cell line; experiment: Global H3K27me3 intracellular levels, TOV21G; assay type: cell-based; conditions: Homo sapiens, 72 h, Day 3, read-out: EC50, reduction of global H3K27me3 levels
[10] = target: T1, EZH2 (PRC2); experiment: Kinetic assays characterising binding to PRC2; conditions: from kinetic assays
Description: In biochemical assays, Compound 1 suppresses catalytic activity of wild-type and Y641N mutant EZH2-containing PRC2 complex, as well as EZH1-containing PRC2 complex, with half-maximal inhibitory concentrations (IC50) values of 0.02 and 0.03 nM for wild-type and Y641N mutant EZH2, respectively, and 0.06 nM for EZH1. See e.g., PCT/US2019/027932. […] Based-upon the kinetic analysis it was determined that Compound 1 binds to PRC2 with a long residence time (approximately 101 days). See e.g., PCT/US2019/027932.

[11] = tested on: H3K27me3 in 639V bladder cancer cell line; experiment: Global H3K27me3 intracellular levels, 639V; assay type: cell-based; conditions: Homo sapiens, 72 h, Day 3, read-out: EC50, reduction of global H3K27me3 levels
[12] = tested on: A2780 (ovarian cancer) cell lines, A2780-P and A2780-CR; experiment: Antiproliferative activity in A2780 ovarian cancer cell lines; assay type: cell-based; conditions: cisplatin resistant A2780-CR versus parental A2780-P; FIG. 1A/1B
Description: as §1, §2, §3

[13] = target: Y641N mutant EZH2-containing PRC2 complex (Homo sapiens, UniProt Q15910, Y641N); conditions: see PCT/US2019/027932, read-out: half-maximal inhibitory concentration (IC50), catalytic activity; cited from earlier work
Chain of Y641N mutant EZH2-containing PRC2 complex (Q15910 whole entry Y641N): as the sequence (Q15910 whole entry) above, with Y641N counted along it
Chain of Y641N mutant EZH2-containing PRC2 complex (O75530 whole entry partner): as the sequence (O75530 whole entry partner) above
Chain of Y641N mutant EZH2-containing PRC2 complex (Q15022 whole entry partner): as the sequence (Q15022 whole entry partner) above
Chain of Y641N mutant EZH2-containing PRC2 complex (Q09028 whole entry partner): as the sequence (Q09028 whole entry partner) above

Structure (SMILES) | IC50 [1] [nM] | sensitivity (cell viability) to single treatment [2] | IC50 [3] [nM] | residence time [4] | residence time ([4]; listed as 7-chloro-2-(4-(3-methoxyazetidin-1-yl)cyclohexyl)-2,4-dimethyl-N-(6-methyl-4-(m))) [days] | CDKN1C (p57, Kip2) gene expression [5] | tumor growth [6] | EC50 [7] [nM] | EC50 [8] [nM] | EC50 [9] [nM] | selectivity for EZH2 over EZH1 [10] | EC50 [11] [nM] | sensitivity (cell viability) to single treatment [12] | IC50 [13] [nM]
COC1CN(C2CCC(C3(C)Oc4c(Cl)cc(C(=O)NCc5c(SC)cc(C)[nH]c5=O)c(C)c4O3)CC2)C1 (single isomer, unassigned) [Compound 1, 7-chloro-2-(4-(3-methoxyazetidin-1-yl)cyclohexyl)-2,4-dimethyl-N-((6-methyl-4-(methylthio)-2-oxo-1,2-dihydropyridin-3-yl)methyl)benzo[d][1,3]dioxole-5-carboxamide] | 0.02 | strongly sensitive | 0.06 | approximately 101 days | ~101 | highly upregulated | effective in reducing tumor growth | 0.4 | 0.14 | 0.26 | approximately 70 fold | 0.09 | strongly sensitive | 0.03
N.N.[Cl][Pt][Cl] [cisplatin, reference compound] |  | less sensitive |  |  |  |  |  |  |  |  |  |  | less sensitive | 
